Here are results for ten molecules from patent US20260274832A1, “COMPOUNDS AND THEIR USE IN TREATING CANCER” (ASTRAZENECA AB, priority 2023, published 2026).

The structures appear in SMILES notation.

The target in assay [1] is T1, AR (AR-full length) in LNCaP cells (Homo sapiens, UniProt P10275, T878A).
T1 construct: the prostate cancer cell line LNCaP (expressing AR-full length); endogenous in cells; host or cells: LNCaP
The assay is described as follows: LNCaP Androgen Receptor Imaging Assay (immunofluorescence of endogenous nuclear AR). It counts as cell-based. To be noted: 24 h incubation; for DC50: concentration giving 50% of maximum degradation of AR per curve fit, single experiment or average of two or more; for Dmax: LNCaP. On the procedure:
This cell-based imaging assay uses immuno-fluorescence to measure endogenous nuclear AR staining in the prostate cancer cell line LNCaP (expressing AR-full length). The purpose of the assay is to identify compounds that regulate AR protein level according to the protocol laid out in the steps below.
(§1) All work was performed in a sterile tissue culture hood up to the point of cell fixation. LNCaP cells were cultured at 6-8×10^6 per T175 flask and split every 3-4 days. Medium: RPMI (R7638, VWR Sigma) containing 10% FCS and 1% glutamine. Cells were plated in black wall transparent bottom plates at a density of 12,000 cells (Cedex™ Cell counter, Beckmann & Coulter), 40 μL per well, using a Multidrop (ThermoFisher).
(§2) Cells were dosed with test compound diluted in DMSO using an Echo 555/655™ (Labcyte) and the final concentration of DMSO in the well was 0.3%. A neutral control (DMSO) and a positive AR degrader control at 3 μM (a prior art AR PROTAC) were included. The Echo uses acoustic technology to perform direct microplate-to-microplate transfers of DMSO compound solutions to assay plates. The system can be programmed to transfer volumes as low as 2.5 nL in multiple increments between microplates and in so doing generates a serial dilution of compound in the assay plate which is then back-filled to normalise the DMSO concentration across the dilution range. Compounds were dispensed as a 12 point dose response with indicated concentrations. The plates were incubated at 37° C./5% CO2 for 24 h and then fixed and stained as below. 40 μL of 8% paraformaldehyde solution (v/v) in phosphate buffered saline (PBS) was added on top of the media already in the well using a Multidrop to fix plates giving a final concentration of 4% PFA (v/v) for 20-30 minutes (keep in fume hood to minimise PFA exposure). After 20-30 mins, the plates were washed with 3×PBS using a BioTek washer in a fume hood. A shake out of remaining volume in the well was performed to ensure best removal of remaining PBS. At this plates could be stored in PBS after washing for at least 3 days at 4° C., if so, PBS was removed by the BioTek before continuing with the next step.
(§3) The cells were incubated with a Mouse monoclonal Anti-AR antibody AR441 (DAKO M3562) (1:1000), diluted in modified blocking buffer (PBS+1% BSA+0.1% TritonX); 15 μL/well for 2 h at RT. The plates were then washed with 3×PBS using a BioTek washer. A shake out of remaining volume in the well was performed to ensure best removal of remaining PBS. Cells were then incubated with Goat anti-mouse secondary antibody 488 (Invitrogen A11001) (1:500) and nuclear stain, DRAQ5 (Abcam Ab108410) (1:2000) diluted in modified blocking buffer for 45 mins at room temperature 15 μL/well. Plates are then washed with 3×PBS using a BioTek washer, without final aspiration, and sealed with black plate seals. Plates could be stored after staining for three days at 4° C. before read if required.
(§4) Plates are read using a Cellomics Cellinsight to measure the Androgen Receptor level in each well. The data is exported into Genedata to perform curve fitting analysis. All data are normalized as % of positive control and the BellFit method automatically determines the correct fit method based on the presence of hook effect, choosing the BellFit when there is a hook and HillFit when there is no hook. Down-regulation of AR is expressed as a DC50 value and determined by calculation of the concentration of compound that is required to give 50% of maximum degradation of AR as per the curve fit for that compound. The maximum degradation observed for each compound is expressed as Dmax. The AR degradation data for compounds is shown in the table below and may be a result from a single experiment or an average of two or more experiments.

Assay [2] concerns the target T2, AR (L702H) in LNCaP cells (Homo sapiens, UniProt P10275, L702H/T878A).
T2 construct: engineered to introduce the mutation L702H into the AR gene using CRISPR/Cas9; endogenous in cells; host or cells: LNCaP cells edited by CRISPR/Cas9 at the AR gene
The assay can be described thus: LNCaP Androgen Receptor L702H Imaging Assay (LNCaP cells engineered by CRISPR/Cas9). It counts as cell-based. Conditions: LNCaP cells with AR L702H mutation, 24 h incubation; for DC50: concentration giving 50% of maximum degradation of AR (L702H) per curve fit; for Dmax: LNCaP. Here is the method:
as §1, §2, §3, §4
At this stage, anti-androgen therapy is largely ineffective due to AR amplification, overexpression or point mutation. One of the point mutations observed in patient populations is L702H in the AR Ligand Binding Domain. LNCAP cells have been engineered to introduce the mutation L702H into the AR gene using CRISPR/Cas9. The previously described imaging-based AR assay will monitor nuclear AR (L702H) levels in these cells to identify compounds that regulate AR (L702H). […]

Where [3] appears, read: maximum degradation observed, normalized as % of positive control (prior art AR PROTAC at 3 μM).
Where [4] appears, read: maximum degradation observed, normalized as % of positive control.

T1 sequence (P10275 whole entry T878A): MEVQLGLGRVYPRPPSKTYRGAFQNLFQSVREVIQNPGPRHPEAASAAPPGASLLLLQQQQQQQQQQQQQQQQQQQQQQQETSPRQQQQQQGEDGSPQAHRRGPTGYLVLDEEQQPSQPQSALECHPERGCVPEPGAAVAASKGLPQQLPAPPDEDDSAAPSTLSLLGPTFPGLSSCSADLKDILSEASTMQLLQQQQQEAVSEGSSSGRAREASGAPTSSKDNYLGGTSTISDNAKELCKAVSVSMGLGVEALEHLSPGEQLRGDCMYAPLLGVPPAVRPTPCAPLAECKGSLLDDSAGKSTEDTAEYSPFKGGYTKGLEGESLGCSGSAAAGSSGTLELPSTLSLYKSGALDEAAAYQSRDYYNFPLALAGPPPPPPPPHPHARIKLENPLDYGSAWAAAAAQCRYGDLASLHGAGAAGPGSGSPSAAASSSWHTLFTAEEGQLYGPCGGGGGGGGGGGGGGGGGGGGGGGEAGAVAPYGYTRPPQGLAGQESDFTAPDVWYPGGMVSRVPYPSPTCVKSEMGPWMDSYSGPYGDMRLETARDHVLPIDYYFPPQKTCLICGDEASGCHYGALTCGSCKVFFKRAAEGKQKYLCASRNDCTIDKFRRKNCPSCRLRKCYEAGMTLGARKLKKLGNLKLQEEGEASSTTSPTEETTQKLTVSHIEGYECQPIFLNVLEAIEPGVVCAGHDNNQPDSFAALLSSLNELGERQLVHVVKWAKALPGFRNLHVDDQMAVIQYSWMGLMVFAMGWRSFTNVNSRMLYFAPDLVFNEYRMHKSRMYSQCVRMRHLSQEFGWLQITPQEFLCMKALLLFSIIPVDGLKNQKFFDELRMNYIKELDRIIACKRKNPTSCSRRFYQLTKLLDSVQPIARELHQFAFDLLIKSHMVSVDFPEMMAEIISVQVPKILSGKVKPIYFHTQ
T1 sequence (Q96SW2 whole entry partner): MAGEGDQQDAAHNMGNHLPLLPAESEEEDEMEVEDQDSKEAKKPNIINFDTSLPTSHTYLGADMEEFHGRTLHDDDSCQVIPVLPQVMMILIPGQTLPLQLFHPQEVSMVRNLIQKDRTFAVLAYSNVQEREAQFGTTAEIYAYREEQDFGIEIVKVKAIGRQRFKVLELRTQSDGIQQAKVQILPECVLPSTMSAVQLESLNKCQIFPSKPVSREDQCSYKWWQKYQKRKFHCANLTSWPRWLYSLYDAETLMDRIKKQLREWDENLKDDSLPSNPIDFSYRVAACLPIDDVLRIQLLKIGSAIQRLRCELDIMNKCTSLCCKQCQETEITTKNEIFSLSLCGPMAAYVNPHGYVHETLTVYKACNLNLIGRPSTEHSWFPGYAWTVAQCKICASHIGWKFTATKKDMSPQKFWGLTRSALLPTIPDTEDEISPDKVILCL
T2 sequence (P10275 whole entry L702H/T878A): as the sequence (P10275 whole entry T878A) above, with L702H counted along it
T2 sequence (Q96SW2 whole entry partner): as the sequence (Q96SW2 whole entry partner) above

A word on the DC50: it is the midpoint of the concentration-degradation curve. A word on the Dmax: it is the greatest extent of degradation seen. As to `Cc1ccc(N2CCC(c3ccc(OCCCCN4CCN(c5cc6c(cc5F)C(=O)N(C5CCC(=O)NC5=O)C6=O)CC4)cc3)CC2)c2[nH]cc(C#N)c12` (stereo not shown) [Example 50, 7-{4-[4-(4-{4-[2-(2,6-Dioxopiperidin-3-yl)-6-fluoro-1,3-dioxo-2,3-dihydro-1H-isoindol-5-yl]piperazin-1-yl}butoxy)phenyl]piperidin-1-yl}-4-methyl-1H-indole-3-carbonitrile], the DC50 in assay [1] amounted to 137 nM; in assay [2], 769 nM. The figures for the Dmax in assay [1] (setting [3]) and in assay [2] (setting [4]) were 98% and 94%, respectively.
Taken in the same sequence, the figures for `N#Cc1c[nH]c2c(N3CCC(c4ccc(N5CC6(CCC(CN7CCC(n8ccc9c(N%10CCC(=O)NC%10=O)cccc98)CC7)CC6)C5)cc4)CC3)ccc(F)c12` [Example 135, 7-(4-{4-[7-({4-[4-(2,4-Dioxo-1,3-diazinan-1-yl)-1H-indol-1-yl]piperidin-1-yl}methyl)-2-azaspiro[3.5]nonan-2-yl]phenyl}piperidin-1-yl)-4-fluoro-1H-indole-3-carbonitrile] were 24 nM, 81 nM, 105% and 91%.
Taken in the same sequence, the figures for `N#Cc1c[nH]c2c(N3CCC[C@@H](c4ccc(N5CCC(CN6CCN(c7ccc8c(c7)CN(C7CCC(=O)NC7=O)C8=O)CC6)CC5)cc4)C3)ccc(F)c12` (stereo partly drawn) [Example 24, 7-[(3S)-3-{4-[4-({4-[2-(2,6-dioxopiperidin-3-yl)-1-oxo-2,3-dihydro-1H-isoindol-5-yl]piperazin-1-yl}methyl)piperidin-1-yl]phenyl}piperidin-1-yl]-4-fluoro-1H-indole-3-carbonitrile] were 6 nM, 18 nM, 100% and 83%.
The matching figures for `COc1cc(N2CCN(CC3CCN(c4ccc(C5CCN(c6ccc(Cl)c7c(C#N)c[nH]c67)CC5)nc4)CC3)CC2)cc2c1C(=O)N(C1CCC(=O)NC1=O)C2` (stereo not shown) [Example 60, 4-Chloro-7-(4-{5-[4-({4-[2-(2,6-dioxopiperidin-3-yl)-7-methoxy-1-oxo-2,3-dihydro-1H-isoindol-5-yl]piperazin-1-yl}methyl)piperidin-1-yl]pyridin-2-yl}piperidin-1-yl)-1H-indole-3-carbonitrile]: 5 nM, 23 nM, 93% and 57%.
Turning to `COc1cc(N2CCN(CC3CCN(c4ccc(C5CCN(c6ccc(Cl)c7c(C#N)c[nH]c67)CC5)cc4)CC3)CC2)cc2c1C(=O)N(C1CCC(=O)NC1=O)C2` (stereo not shown) [Example 7, 4-Chloro-7-(4-{4-[4-({4-[2-(2,6-dioxopiperidin-3-yl)-7-methoxy-1-oxo-2,3-dihydro-1H-isoindol-5-yl]piperazin-1-yl}methyl)piperidin-1-yl]phenyl}piperidin-1-yl)-1H-indole-3-carbonitrile], the 50% degradation concentration (DC50) came to 9 nM in assay [1] and 14 nM in assay [2]. The Dmax came to 98% in assay [1] (setting [3]) and 101% in assay [2] (setting [4]).
The matching figures for `N#Cc1c[nH]c2c(N3CCC(c4ccc(C(=O)N5CCC(CN6CCN(c7ccc8c(c7)CN(C7CCC(=O)NC7=O)C8=O)CC6)CC5)cc4)CC3)ccc(Cl)c12` (stereo not shown) [Example 85, 4-Chloro-7-(4-{4-[4-({4-[2-(2,6-dioxopiperidin-3-yl)-1-oxo-2,3-dihydro-1H-isoindol-5-yl]piperazin-1-yl}methyl)piperidine-1-carbonyl]phenyl}piperidin-1-yl)-1H-indole-3-carbonitrile]: 4 nM, 17 nM, 98% and 83%.
Taken in the same sequence, the figures for `N#Cc1n[nH]c2c(N3CCC(c4ccc(N5CCC(CN6CCN(c7ccc8c(c7)CN(C7CCC(=O)NC7=O)C8=O)CC6)CC5)cc4)CC3)ccc(F)c12` (stereo not shown) [Example 145, 7-(4-{4-[4-({4-[2-(2,6-Dioxopiperidin-3-yl)-1-oxo-2,3-dihydro-1H-isoindol-5-yl]piperazin-1-yl}methyl)piperidin-1-yl]phenyl}piperidin-1-yl)-4-fluoro-1H-indazole-3-carbonitrile] were 9 nM, 40 nM, 98% and 70%.
Turning to `N#Cc1c[nH]c2c(N3CCCC(NC(=O)c4ccc(N5CCC(CN6CCN(c7ccc8c(c7)CN(C7CCC(=O)NC7=O)C8=O)CC6)CC5)cn4)C3)ccc(Cl)c12` (single isomer, unassigned) [Example 181, N-[(3S*)-1-(4-Chloro-3-cyano-1H-indol-7-yl)piperidin-3-yl]-5-[4-({4-[2-(2,6-dioxopiperidin-3-yl)-1-oxo-2,3-dihydro-1H-isoindol-5-yl]piperazin-1-yl}methyl)piperidin-1-yl]pyridine-2-carboxamide], the DC50 in assay [1] came to 4 nM; in assay [2] it was 9 nM. The “LNCaP AR Degradation Dmax” value in assay [1] (setting [3]) worked out at 95%. In assay [2] (setting [4]), the “LNCaP AR (L702H) Degradation Dmax” value worked out at 95%.
`COc1cc(N2CCN(CC3CCN(c4ccc(C5CCN(c6ccc(F)c7c(C#N)c[nH]c67)CC5)cc4)CC3)CC2)cc2c1C(=O)N(C1CCC(=O)NC1=O)C2` (stereo not shown) [Example 20, 7-(4-{4-[4-({4-[2-(2,6-Dioxopiperidin-3-yl)-7-methoxy-1-oxo-2,3-dihydro-1H-isoindol-5-yl]piperazin-1-yl}methyl)piperidin-1-yl]phenyl}piperidin-1-yl)-4-fluoro-1H-indole-3-carbonitrile]: the results for the DC50 in assay [1] and in assay [2] were 9 nM and 8 nM, respectively. Also, the Dmax in assay [1] (setting [3]) is 94%; in assay [2] (setting [4]), 101%.
`N#Cc1c[nH]c2c(N3CCC[C@H](c4ccc(N5CCC(CN6CCN(c7cc8c(cc7F)C(=O)N(C7CCC(=O)NC7=O)C8=O)CC6)CC5)cc4)C3)ccc(Cl)c12` (stereo partly drawn) [Example 54, 4-Chloro-7-[(3R)-3-{4-[4-({4-[2-(2,6-dioxopiperidin-3-yl)-6-fluoro-1,3-dioxo-2,3-dihydro-1H-isoindol-5-yl]piperazin-1-yl}methyl)piperidin-1-yl]phenyl}piperidin-1-yl]-1H-indole-3-carbonitrile]: the half-maximal degradation concentration (DC50) is 36 nM in assay [1] and 52 nM in assay [2]. Also, the Dmax in assay [1] (setting [3]) was found to be 77%; in assay [2] (setting [4]), 97%.
